Experimental data from article PMC12325182, “Discovery of novel and potent celastrol derivatives as PRDX1 inhibitors for cancer therapy through structure-based virtual screening” (Frontiers in Pharmacology, 2025).
Where two headings read alike, the source gives them in different places.

Columns and labels:
PRDX1 [1] = target: T1, PRDX1 (Homo sapiens, UniProt Q06830); experiment: PRDX1 inhibition assay; format: biochemical
T1 sequence (Q06830 1-199): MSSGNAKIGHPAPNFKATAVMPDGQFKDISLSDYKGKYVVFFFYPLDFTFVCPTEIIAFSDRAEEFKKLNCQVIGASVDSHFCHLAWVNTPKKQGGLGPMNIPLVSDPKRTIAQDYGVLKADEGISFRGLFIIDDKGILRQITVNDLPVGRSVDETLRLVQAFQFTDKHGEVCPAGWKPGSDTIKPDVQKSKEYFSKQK
Experimental: The cells were purchased from the American Type Culture Collection (ATCC) (Manassas, VA, United States). Cells were cultured in RPMI-1640 medium supplemented with 10% FBS, 50 units/mL penicillin, and 50 μg/mL streptomycin, and maintained at 37°C in a 5% CO2 humidified culture environment. CPs 1-5 were purchased from WuXi AppTec. Human PRDX1 proteins were purchased from Abcam (Cambridge, MA, United States).
First, […] buffer (20 mM HEPES, 5 mM EDTA, 5 μM cofactor A, 2 μM cofactor B, and 300 μM NADPH) was added to a 96-well plate. The test compounds at the designated concentration (0.02–2 nM, with 1.5-fold dilution) were incubated with PRDX1 at 37°C for 25 min, and then the co-incubated mixture was added to each well to a final concentration of 200 nM PRDX1. Finally, 200 μM H2O2 was added to each well to initiate the enzyme reaction cycle. The oxidation of NADPH was determined by the absorption value at 340 nm. Read plate values for 90 s for one cycle and repeat for 20 cycles. The positive control (celastrol, concentrations 0.06–64 μM) was tested in parallel under identical experimental conditions. Three independent replicate experiments were performed.

A549 lung cancer cells = experiment: MTT assay; format: cell-based; conditions: Homo sapiens, read-out: IC50 (μM) A549
Experimental: (§1) Cells were seeded in 96-well plates at 5 ×10^4 cells/well and cultured overnight at 37°C under 5% CO2. After medium removal, cells were treated with serially diluted compounds (0.04–163.84 μM) or vehicle control (0.1% DMSO) and incubated for 72 h. Subsequently, 20 μL of MTT solution (5 mg/mL) was added to each well, and incubation was continued for 4 h. Add 150 μL of DMSO and shake for 10 min to fully dissolve the crystal. Finally, the absorbance was measured at 570 nm using a microplate reader. Cell viability was calculated as (ODcompound - ODblank)/(ODvehicle - ODblank) × 100%. The half inhibitory concentration (IC50) was calculated from the dose-response curve using Prism 8.0 software. Three independent replicate experiments were performed.

[2] = tested on: BEAS-2B normal lung cells; experiment: MTT assay; format: cell-based; conditions: Homo sapiens, 72 h
Experimental: as §1

PRDX1 [3] = target: T1, PRDX1; experiment: MST assay; format: binding
Experimental: The MST assays were carried out in a buffer composed of 50 mM Tris, 200 mM NaCl, and 0.1% (v/v) TWEEN20. PRDX1 was tagged with the MO-L011 protein labeling kit (RED-NHS second Generation). The diluted compounds were combined with the tagged PRDX1 protein and allowed to stand at room temperature for 5 minutes. Subsequently, the reaction mixture was loaded into capillaries, and measurements were taken using a Monolith NT.115 instrument.

LO2 (normal liver cells) = experiment: MTT assay; format: cell-based; conditions: Homo sapiens, 72 h, read-out: IC50 (μM) LO2
Experimental: as §1

[4] = tested on: MCF-7 (breast adenocarcinoma cells); experiment: MTT assay; format: cell-based; conditions: Homo sapiens, MCF7, 72 h, read-out: IC50 (μM) MCF-7
Experimental: as §1

[5] = tested on: HepG2 (hepatocellular carcinoma cells); experiment: MTT assay; format: cell-based; conditions: Homo sapiens, HepG2, 72 h, read-out: IC50 (μM) HepG2
Experimental: as §1

[6] = tested on: HEK293 (embryonic kidney cells); experiment: MTT assay; format: cell-based; conditions: Homo sapiens, HEK293, 72 h, read-out: IC50 (μM) HEK293
Experimental: as §1

[7] = tested on: HaCaT (immortalised keratinocytes); experiment: MTT assay; format: cell-based; conditions: Homo sapiens, 72 h, normal cells, mean ± SD, n = 3
Experimental: as §1

[8] = mean ± SD, n = 3, read-out: PRDX1 (IC50)
[9] = A549, MTT, 72 h, mean ± SD, n = 3
[10] = MTT, normal lung cells, mean ± SD, n = 3, read-out: IC50 (μM) BEAS-2B

IC50 (PRDX1 [1]; [8]) | IC50 (A549 lung cancer cells; [9]) | Structure (SMILES) | IC50 [2, 10] | Kd (PRDX1 [3]) | IC50 (PRDX1 [1]) | IC50 (A549 lung cancer cells; A549, 72 h) | IC50 (LO2 (normal liver cells)) | IC50 [4] | IC50 [5] | IC50 [6] | IC50 [7] | IC50 ([2]; read-out: IC50 (μM) BEAS-2B)
0.31 ± 0.03 nM | 0.63 ± 0.04 µM | C[C@@]1(C(=O)NCc2cccc(CC(O)O)c2)CC[C@]2(C)CC[C@]3(C)C4=CC=C5C=C(CC(=O)/C=C/c6cccc(CO)c6)C(=O)C=C5C4CC[C@@]3(C)C2C1 (stereo partly drawn) [CP4] | > 100 µM |  |  |  |  |  |  |  |  | 
0.17 ± 0.02 nM | 0.46 ± 0.03 µM | CC1=C(CC(=O)/C=C/C2=CC(CO)=CC2)C(=O)C=C2C1=CC=C1[C@@]2(C)CC[C@@]2(C)C3C[C@](C)(C(=O)NCc4cccc(C(O)C(O)O)c4)CC[C@]3(C)CC[C@]12C (stereo partly drawn) [CP2] | > 100 µM |  |  |  |  |  |  |  |  | 
0.25 ± 0.01 nM | 0.57 ± 0.05 µM | Cc1ncc(CNC(=O)[C@]2(C)CC[C@]3(C)CC[C@]4(C)C5=CC=C6C=C(CC(=O)/C=C/c7cccc(CO)c7)C(=O)C=C6C5CC[C@@]4(C)C3C2)nc1C(C)C(O)O (stereo partly drawn) [CP3] | > 100 µM |  |  |  |  |  |  |  |  | 
 |  | CC1=C(O)C(=O)C=C2C1=CC=C1[C@@]2(C)CC[C@@]2(C)[C@@H]3C[C@](C)(C(=O)O)CC[C@]3(C)CC[C@]12C [Celastrol, celastrol] |  | 320 ± 20 nM | 510 ± 40 nM | 1.24 ± 0.08 µM | 24 ± 0.69 µM | 1.31 ± 0.06 µM | 1.28 ± 0.05 µM | 5.76 ± 0.12 µM | 17.4 ± 0.54 µM | 0.45 ± 0.03 µM
0.36 ± 0.02 nM | 0.68 ± 0.06 µM | C=C(/C=C(C)\C=C\C(=O)CC1=CC2=CC=C3C(CC[C@@]4(C)C5C[C@](C)(C(=O)NCc6cccc(CC(O)O)c6)CC[C@]5(C)CC[C@]34C)C2=CC1=O)CO (stereo partly drawn) [CP5] | > 100 µM |  |  |  |  |  |  |  |  | 
